Consider 25 molecules from ChEMBL document CHEMBL3232786, “Therapeutic utility of cannabinoid receptor type 2 (CB(2)) selective agonists” (J Med Chem, 2013).

Data set [1] deals with T1, Cannabinoid receptor 2 (Homo sapiens, UniProt P34972). The data set is described as follows: Agonist activity at human CB2 receptor expressed in Sf9 membranes assessed as effect on [35S]-GTPgammaS binding after 30 mins by scintillation counting. The data set is classed as functional, cell membranes. A general note: Binding of GTPγS marks nucleotide exchange on a G protein.
T1 sequence (P34972 whole entry): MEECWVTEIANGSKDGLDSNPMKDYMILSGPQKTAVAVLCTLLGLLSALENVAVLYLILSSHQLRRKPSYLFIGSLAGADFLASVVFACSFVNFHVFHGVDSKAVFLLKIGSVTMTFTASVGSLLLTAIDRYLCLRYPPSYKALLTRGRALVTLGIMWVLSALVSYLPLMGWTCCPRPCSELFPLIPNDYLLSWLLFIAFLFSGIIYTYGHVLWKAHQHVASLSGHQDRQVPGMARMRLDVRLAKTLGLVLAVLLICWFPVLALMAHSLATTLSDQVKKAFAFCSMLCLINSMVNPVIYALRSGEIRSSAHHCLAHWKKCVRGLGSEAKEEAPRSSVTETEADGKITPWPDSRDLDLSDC

The target in data set [2] is T2, Cannabinoid receptor 2 (Rattus norvegicus, UniProt Q9QZN9).
T2 sequence (Q9QZN9 whole entry): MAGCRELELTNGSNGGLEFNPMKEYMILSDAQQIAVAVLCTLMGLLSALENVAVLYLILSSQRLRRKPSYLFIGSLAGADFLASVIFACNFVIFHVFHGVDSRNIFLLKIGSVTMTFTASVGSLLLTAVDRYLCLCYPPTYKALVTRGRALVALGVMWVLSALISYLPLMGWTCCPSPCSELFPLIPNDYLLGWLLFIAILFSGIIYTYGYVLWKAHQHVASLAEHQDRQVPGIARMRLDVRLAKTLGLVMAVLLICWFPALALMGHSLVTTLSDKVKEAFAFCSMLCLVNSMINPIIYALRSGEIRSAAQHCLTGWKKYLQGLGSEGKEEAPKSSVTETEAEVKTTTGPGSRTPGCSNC
The data set is described as follows: Inverse agonist activity at rat CB2 receptor expressed in CHO-K1 cells assessed as inhibition of forskolin-induced cAMP accumulation. It is filed as functional, cell-based. In general terms: Cyclic AMP is a second messenger, typically raised through Gs and lowered through Gi signalling.

For data set [3], the species on record is Homo sapiens. As to the kind of experiment: Selectivity ratio of Ki for human CB1 receptor to Ki for human CB2 receptor.
Data set [4] deals with T1, Cannabinoid receptor 2. As to the kind of experiment: Agonist activity at human CB2 receptor assessed as inhibition of forskolin-induced cAMP production preincubated for 15 mins followed by forskolin challenge measured after 30 mins by HTRF assay. It is filed as functional.
Data set [5] addresses T1, Cannabinoid receptor 2. As to the kind of experiment: Agonist activity at human CB2 receptor assessed as inhibition of forskolin-induced cAMP production preincubated for 15 mins followed by forskolin challenge measured after 30 mins by HTRF assay relative to control. It is filed as functional.
In data set [6] the target is T3, Cannabinoid receptor 1 (Homo sapiens, UniProt P21554). As to the kind of experiment: Agonist activity at human CB1 receptor assessed as inhibition of forskolin-induced cAMP production preincubated for 15 mins followed by forskolin challenge measured after 30 mins by HTRF assay. The data set is classed as functional.
T3 sequence (P21554 whole entry): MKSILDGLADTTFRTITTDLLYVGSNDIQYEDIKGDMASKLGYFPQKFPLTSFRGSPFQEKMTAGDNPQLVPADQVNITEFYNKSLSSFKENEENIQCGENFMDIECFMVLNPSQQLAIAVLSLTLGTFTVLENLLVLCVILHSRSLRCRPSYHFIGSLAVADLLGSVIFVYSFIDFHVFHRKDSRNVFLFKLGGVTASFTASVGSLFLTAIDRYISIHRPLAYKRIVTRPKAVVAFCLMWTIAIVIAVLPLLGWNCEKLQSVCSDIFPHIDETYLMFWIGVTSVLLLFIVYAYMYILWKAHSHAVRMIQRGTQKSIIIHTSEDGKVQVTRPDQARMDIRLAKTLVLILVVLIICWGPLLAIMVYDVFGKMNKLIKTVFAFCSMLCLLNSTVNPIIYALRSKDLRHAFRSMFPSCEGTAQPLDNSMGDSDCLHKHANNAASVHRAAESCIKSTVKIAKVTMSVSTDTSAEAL
Data set [7] is described as follows: Cmax in Sprague-Dawley rat at 10 mg/kg, po by UV-HPLC analysis. The data set is classed as ADME, organism-based. To be noted: in vivo. On the set-up: dose 10 mg/kg, route oral.
Data set [8] can be described thus: Half life in Sprague-Dawley rat at 10 mg/kg, po by UV-HPLC analysis. It is filed as ADME, organism-based. Set-up: dose 10 mg/kg, route oral. The conditions noted are these: in vivo.
Data set [9] can be described thus: AUC (0 to infinity) in Sprague-Dawley rat at 10 mg/kg, po by UV-HPLC analysis. The data set is classed as ADME, organism-based. Set-up: time infinity, dose 10 mg/kg, route oral. To be noted: plasma.
The target of data set [10] is T3, Cannabinoid receptor 1. The data set is described as follows: Binding affinity to human CB1 receptor.
Data set [11] deals with T3, Cannabinoid receptor 1. As to the kind of experiment: Agonist activity at human CB1 receptor expressed in human SK-N-MC cells by CRE-beta galactosidase reporter gene assay. It is filed as functional, cell-based.
Data set [12] addresses T1, Cannabinoid receptor 2. The data set is described as follows: Agonist activity at human CB2 receptor expressed in human SK-N-MC cells by CRE-beta galactosidase reporter gene assay. It is filed as functional, cell-based. (A reporter such as luciferase makes a cellular process visible.)
Data set [13] addresses T3, Cannabinoid receptor 1. The data set is described as follows: Binding affinity to CB1 receptor (unknown origin).
Data set [14] has as its target T4, Cannabinoid receptor 1 (Rattus norvegicus, UniProt P20272). The data set is described as follows: Binding affinity to rat CB1 receptor.
The target in data set [15] is T1, Cannabinoid receptor 2. As to the kind of experiment: Binding affinity to human CB2 receptor.
Data set [16] can be described thus: Selectivity ratio of Ki for rat CB1 receptor to Ki for human CB2 receptor.
Data set [17] has as its target T3, Cannabinoid receptor 1. The data set is described as follows: Agonist activity at human CB1 receptor expressed in human SK-N-MC cells at 1 uM by CRE-beta galactosidase reporter gene assay. It is filed as functional, cell-based.
Data set [18] concerns the target T3, Cannabinoid receptor 1. The data set is described as follows: Agonist activity at human CB1 receptor.
Data set [19] has as its target T1, Cannabinoid receptor 2. The data set is described as follows: Agonist activity at human CB2 receptor.
The target of data set [20] is T4, Cannabinoid receptor 1. As to the kind of experiment: Displacement of [3H]SR141716A from rat brain CB1 receptor by liquid scintillation spectrophotometry.
In data set [21] the test system is Mus musculus. As to the kind of experiment: Antinociceptive activity against iv dosed ICR mouse measured at 20 mins by tail flick test. The data set is classed as functional.
Data set [22] deals with T1, Cannabinoid receptor 2. The data set is described as follows: Binding affinity to CB2 receptor (unknown origin).
The target in data set [23] is T1, Cannabinoid receptor 2. As to the kind of experiment: Agonist activity at human CB2 receptor transfected in CHO-K1 cells assessed as cAMP change. It is filed as functional, cell-based.
In data set [24] the target is T1, Cannabinoid receptor 2. The data set is described as follows: Agonist activity at human CB2 receptor expressed in Saccharomyces cerevisiae MMY23 using fluorescein di-beta-D-glucopyranoside as substrate after 24 hrs by fluorescence-based assay.

T4 sequence (P20272 whole entry): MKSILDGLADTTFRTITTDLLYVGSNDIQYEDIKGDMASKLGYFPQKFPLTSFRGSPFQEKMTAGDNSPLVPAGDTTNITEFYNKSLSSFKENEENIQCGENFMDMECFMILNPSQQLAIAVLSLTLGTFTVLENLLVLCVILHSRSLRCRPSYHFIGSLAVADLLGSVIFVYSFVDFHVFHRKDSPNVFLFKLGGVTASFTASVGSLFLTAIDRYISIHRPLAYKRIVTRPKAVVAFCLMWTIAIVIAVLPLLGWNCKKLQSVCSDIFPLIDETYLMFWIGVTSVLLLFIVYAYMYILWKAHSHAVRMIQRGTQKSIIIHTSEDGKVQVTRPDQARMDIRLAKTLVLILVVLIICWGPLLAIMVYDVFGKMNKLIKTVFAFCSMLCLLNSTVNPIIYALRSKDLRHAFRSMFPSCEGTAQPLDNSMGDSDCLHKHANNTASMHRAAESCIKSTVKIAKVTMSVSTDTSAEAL

Turning to `COc1ccc(C(=O)c2cc3cc(C)n(CCN4CCOCC4)c3s2)cc1`, the EC50 (usually the concentration needed to bring the measured effect to its halfway point) in data set [1] was less than 100 nM.
In the case of `CN1CCCC[C@@H]1Cn1cc(C(=O)c2cc([N+](=O)[O-])ccc2I)c2ccccc21`, the EC50 in data set [2] was 315 nM.
Consider `CCCCCCC(C)(C)c1cc(O)c2c(c1)OC(C)(C)C1CCC(=O)CC21` (stereo unspecified), for which the Ratio Ki in data set [3] was 1.2.
Consider `CC(NC(=O)c1nc(N2CCOCC2)n2ccccc12)C(C)(C)C` (stereo unspecified), for which the EC50 in [4] was 5.4 nM; in data set [6], more than 17000 nM. The Ratio Ki in data set [3] was more than 3100. The Emax (as a rule, the maximal effect, on the per cent scale that the assay sets) in data set [5] stood at 99.5%.
`CC(C)(CO)NC(=O)c1nn(-c2ccc(Cl)cc2)c2c1C1CCC2C1` (stereo unspecified): in data set [7], the highest level (Cmax) was 1950 ng/mL. The half-life (in general, how long it takes for the measured level to halve) in data set [8] was 4.8 h. Besides, in data set [9], the area under the curve AUC(0-inf) (usually the area under the concentration-time curve extrapolated to infinity) was determined as 12000 ng·h/mL.
Regarding `COCCN1CC(C)(C)S/C1=N\C(=O)c1cc(Cl)ccc1OC`, the Ratio Ki in data set [3] was 10.
Take `CCCCCCC(C)(C)c1cc(O)c2c(c1)OC(C)(C)[C@@H]1CC=C(CO)C[C@@H]21`: affinity in [10] was put at a Ki of 0.73 nM.
Regarding `O=C(N[C@H](CO)c1ccccc1)c1n[nH]c2c1CCCC[C@H]2Cc1cccc(Cl)c1`, the EC50 in data set [11] is more than 5000 nM; in data set [12] it was 12 nM.
As for `CCCCCn1cc(C(=O)c2cccc3ccccc23)c2ccccc21`, in data set [13], the Ki (as a rule, a measure of affinity in units of concentration, obtained from inhibition or displacement) was 9.5 nM. That is a single-digit nanomolar value.
Regarding `CC1OCc2sc(NC(=O)C3C(C)(C)C3(C)C)c(C(=O)N3CC(F)(F)C3)c21` (stereo unspecified), the Ratio Ki in data set [3] was determined as 10.
Consider `CCCCCCC(C)(C)c1cc(O)c2c(c1)OC(C)(C)[C@@H]1CC=C(OO)C[C@@H]21`, for which the figures for the Ki in [14] and in data set [15] were 1.2 nM and 0.032 nM, respectively. Moreover, the Ratio Ki in data set [16] was 38.
`O=C(NCC12CC3CC(CC(C3)C1)C2)c1nn(C2CCCCC2)c2c1CCCCCC2` showed an Activity in [17] of 71%.
As for `COc1ccc2c(c1)c(CCN1CCOCC1)c(C)n2C(=O)c1cccc(Cl)c1Cl`, the inhibitory constant (Ki) in data set [18] was found to be 4800 nM; in data set [19] it was 3.8 nM.
As for `CC(C)(CO)c1cc(NC(=O)C(C)(C)S(=O)(=O)C2CCOCC2)on1`, in data set [6], the EC50 was more than 50000 nM.
As to `CCCn1c(C)c(C(=O)c2cc3ccsc3n2CCC)c2ccccc21`, the EC50 in [1] was less than 100 nM.
For the molecule `CC(=O)Oc1cc(O[C@H](C)CCCc2ccccc2)cc2c1[C@@H]1C[C@H](O)CC[C@H]1[C@H](C)N2` [LEVONANTRADOL], the Ki in data set [20] stood at 2.9 nM.
As to `CN(C1CCOCC1)C(C)(C)C(=O)Nc1cc(C(C)(C)CO)no1`, the concentration for a half-maximal effect (EC50) in [6] was more than 50000 nM.
As for `CCCCCc1cc(O)c2c(c1)OC(C)(C)[C@@H]1CCC(C)=C[C@@H]21` [DRONABINOL], the median effective dose (ED50) (in general, the dose that gives a 50% effect, or the effect in half of the subjects) in [21] stood at 0.02 mg/kg.
`CCCn1c(C)c(C(=O)c2cccc3cc(OC)ccc23)c2ccccc21` gave a Ki in data set [13] of more than 10000 nM.
On to `COc1cccc2c(C(=O)N[C@@H]3C(C)(C)[C@@H]4CC[C@@]3(C)C4)nn(CCN3CCOCC3)c12`, for which the inhibitory constant (Ki) was determined as 24 nM in data set [13] and 2 nM in [22].
Regarding `C=C1CC[C@@H]2[C@@H](C1)c1c(OC)cc(C(C)(C)CCCCCC)cc1OC2(C)C`, the Ratio Ki in data set [3] was more than 1000.
As to `CNC(=O)[C@@H](NC(=O)c1nc(-c2ccccc2)n2c1CN(C)CCC2)C(C)(C)C`, the results for the 50% effective concentration (EC50) in data set [4] and in [6] were 10 nM and more than 10000 nM, respectively.
As to `CCCCCCC(C)(C)c1cc(O)c2c(c1)OC(C)(C)[C@@H]1CC=C(C)C[C@@H]21`, the Ratio Ki in data set [3] turned out to be 1.7.
Regarding `CC1CN1S(=O)(=O)c1ccc2c(c1)C1(OCCCO1)C(=O)N2CC1CC1` (stereo unspecified), the half-maximal effective concentration (EC50) in data set [23] came to 2 nM.
Molecule `O=S(=O)(c1ccc(Cl)cc1)c1cnc2c(NCC3CCOCC3)cccc2c1` gave a half-maximal effective concentration (EC50) in [24] of less than 1000 nM.
